From patent publication US8703114B2, “Conjugate of a polymer, an anti-angiogenesis agent and a targeting moiety, and uses thereof in the treatment of bone related angiogenesis conditions” (priority 2008, dated 2014)
Read-outs that look alike come from different tables or passages of the source.

Assays:
HUVEC [1] = assay: HUVEC cell proliferation assay; settings: for IC30 of HUVEC proliferation / IC70 of HUVEC proliferation: single treatment
Experimental: HUVEC were plated at 10,000 cells/well onto 24-well culture plates in EBM-2 supplemented with 5% FBS and incubated for 24 hours (37° C.; 5% CO2). Medium was replaced with 2.5% endothelial cell basal medium-2 (EBM-2) supplemented with 1% Endothelial cell growth supplement (ECGS). Human osteosarcoma Saos-2 or MG-63-Ras cells were plated at 2500 cells/well in DMEM supplemented with 5 FBS and incubated for 24 hours (37° C.; 5% CO2). The medium was then replaced with DMEM supplemented with 10% FBS. Cells were exposed to ALN, TNP-470, and HPMA copolymer-ALN-TNP-470 conjugate or with equivalent concentrations of combinations of free ALN and TNP-470 at serial dilutions. HUVEC were also incubated with or without 1 μM of cathepsin-K inhibitor III. Control cells were grown in the presence or absence of growth factors. HUVEC or Saos-2 viable cells were counted by a Z1 Coulter® Particle Counter (Beckman Coulter™) or by XTT reagent respectively after 72 hours of incubation.
IC50 represents the concentration of a drug that is required for 50% inhibition in vitro. The IC30, 50, 70 values of treatment with ALN, TNP-470 and their respective combinations from HUVEC proliferation assay were collected. IC30, 50, 70 values of TNP-470 and ALN were marked on X, Y axis respectively and a line which represents additive effect was drawn between each inhibitory concentration (IC). The combination index (CI) of each treatment was calculated according to the classic isobologram equation CI=[(D)1/(Dx)1]+[(D)2/(Dx)2] as previously described [Chou T. C. Pharmocol Rev 2006; 58:621-681]. Area on the right side of each IC additive line represents antagonist effect while the left side represents synergic effect.

[2] = system: Saos-2 human osteosarcoma cells; assay: Saos-2 cell proliferation assay; type: cell-based
Experimental: (§1) Human osteosarcoma Saos-2 or MG-63-Ras cells were plated at 2500 cells/well in DMEM supplemented with 5 FBS and incubated for 24 hours (37° C.; 5% CO2). The medium was then replaced with DMEM supplemented with 10% FBS. Cells were exposed to ALN, TNP-470, and HPMA copolymer-ALN-TNP-470 conjugate or with equivalent concentrations of combinations of free ALN and TNP-470 at serial dilutions. […] Control cells were grown in the presence or absence of growth factors. HUVEC or Saos-2 viable cells were counted by a Z1 Coulter® Particle Counter (Beckman Coulter™) or by XTT reagent respectively after 72 hours of incubation.

HUVEC [3] = assay: HUVEC migration assay towards VEGF; type: cell-based, human
Experimental: Cell migration assays were performed using modified 8 μm Boyden chambers coated with 10 μg/ml fibronectin. […] Following incubation, cells were allowed to migrate to the underside of the chamber for 4 hours in the presence or absence of Vascular endothelial growth factor (VEGF) (20 ng/ml) in the lower chamber. Cells were then fixed with ice-cold […] and stained using Hema 3 Stain System. The stained migrated cells were imaged using Nikon TE2000E inverted microscope integrated with Nikon DS5 cooled CCD camera by 10× objective, brightfield illumination. Migrated cells from the captured images per membrane were counted using NIH image software. Migration was normalized to percent migration, with 100% representing VEGF dependent migration of cells which were not incubated with free or HPMA-conjugated ALN and TNP-470.

[4] = system: MG-63-Ras human osteosarcoma cells; assay: MG-63-Ras cell proliferation assay; type: cell-based
Experimental: as §1

[5] = Hydroxyapatite binding assay; settings: PBS pH 7.4
Experimental: In order to assess the ability of HPMA copolymer-ALN-TNP-470 conjugate to bind to bone mineral, its binding potency to hydroxyapatite (HA) was evaluated. HPMA copolymer-ALN-TNP-470 conjugate was dissolved in phosphate buffered saline (PBS), pH 7.4 (1 mg/ml). The conjugate solution (500 μl) was incubated with hydroxyapatite powder (15 mg), in 500 μl PBS, pH 7.4. HPMA copolymer-Gly-Phe-Leu-Gly was used as control. Incubated samples were centrifuged at 6000 RPM for 3 minutes and a sample from the upper layer (100 μl) was collected at selected time points. FPLC analysis using HighTrap desalting column (Amersham®) was used for detection of unbound conjugate in the samples (FPLC conditions: AKTA™ Purifier®, mobile phase 100% DDW, 2 ml/minute, 215 nm). Hydroxyapatite binding kinetic analysis of the conjugate was performed using the Unicorn® AKTA™ software. Areas under the curve (AUC) were calculated from chromatographs at each time point. AUC of each hydroxyapatite incubated conjugate chromatogram was normalized to percent AUC of conjugate sample in the absence of hydroxyapatite used as control.

HUVEC [6] = assay: Capillary-like tube formation assay; type: cell-based, human
Experimental: The surface of 24-well plates was coated with Matrigel® basement membrane (50 μl/well; 10 mg/ml) on ice and was allowed to polymerize at 37° C. for 30 minutes. […] After 8 hours of incubation (37° C.; 5% CO2), wells were imaged using Nikon TE2000E inverted microscope integrated with Nikon DS5 cooled CCD camera by 4× objective, brightfield illumination. […]

[7] = system: VEGF-induced extravasation of Evans blue dye; assay: Miles vascular permeability assay; type: in vivo, Balb/c mice; settings: 30 mg/kg TNP-470 equivalents s.c., assay three days later
Experimental: Balb/c male mice were injected subcutaneously (s.c.) with TNP-470, HPMA copolymer-ALN-TNP-470 conjugate (30 mg/kg TNP-470 equivalents) or saline (n=5 mice/group). Three days later, a modified Miles assay was performed as previously described [Claffey et al. 1996, Cancer Res 56: 172-181; Miles & Miles 1952, J Physiol 118:228-257]. Briefly, Evans blue dye (100 μl of a 1% solution in 0.9% NaCl) was injected into the retro-orbital plexus of the mice. Ten minutes later, 50 μl of human VEGF165 (1 ng/μl) or PBS were injected intradermally into the pre-shaved back skin. Twenty minutes later, the animals were killed, and an area of skin that included the entire injection site was removed. Evans blue dye was extracted from the skin by incubation with formamide for 5 days at room temperature, and the absorbance of the extracted dye was measured at 620 nm. Data is expressed as mean±standard error of the mean (s.e.m.).

[8] = system: mCherry-labeled MG-63-Ras human osteosarcoma; assay: Antitumor activity on MG-63-Ras human osteosarcoma in mice; type: in vivo, SCID mice; settings: day 19, 30 mg/kg q.o.d. 3 times s.c.
Experimental: SCID male were inoculated s.c. with 5×10^5 mCherry-labeled MG-63-Ras human osteosarcoma. Mice bearing 70 mm^3 tumors were injected s.c. with combination of free ALN and TNP-470 (1:1, 30 mg/kg), FITC-labeled HPMA copolymer-ALN-TNP-470 conjugate (30 mg/kg q.o.d.×3 times TNP-470-equivalent dose) or saline (n=5 mice/group). Therapy was initiated at a relatively early state (70 mm^3) in order to imitate a metastatic scenario as well as an early primary osteosarcoma. Tumor progression was monitored by caliper measurement (width×length^2×0.52) and by CRI™ Maestro non-invasive intravital imaging system. At termination, tumors were dissected, weighed and analyzed. Data is expressed as mean±standard error of the mean (s.e.m.).
CRI Maestro™ non-invasive fluorescence imaging system was used to follow tumor progression of mice bearing mCherry-labeled MG-63-Ras human osteosarcoma tumors and for biodistribution studies of FITC-labeled HPMA copolymer-ALN-TNP-470 conjugate. Mice were maintained on a non-fluorescent diet (Harlan) for the whole period of the experiment. Mice were anesthetized using ketamine (100 mg/kg) and xylazine (12 mg/kg), treated with a depilatory cream (Veet®) and placed inside the imaging system. Alternatively, selected organs from mice were dissected and placed inside the imaging system. […]

[9] = system: MG-63-Ras human osteosarcoma tumors; assay: Immunohistochemistry of tumors (H & E, CD34 microvessel density); type: in vivo, mice
Experimental: Immunohistochemistry of tumor nodules was performed using 5 μm thick formalin-fixed, paraffin-embedded tissue sections. Paraffin sections were de-paraffinized, rehydrated, and stained by hematoxylin and eosin (H & E). For CD34 staining (an endothelial cell marker), slides were deparaffinized and pre-treated with 10 mM citrate, pH 6.0 for 50 min in a steam pressure cooker (Decloaking Chamber, BioCare Medical, Walnut Creek, Calif.). All further steps were performed at room temperature in a hydrated chamber. Slides were covered with Peroxidase Block (Merck, Germany) for 5 minutes to quench endogenous peroxidase activity, followed by incubation with 10% of rabbit serum in 50 mM Tris-HCl, pH 7.4, for 30 min to block non-specific binding sites. Primary rat anti-murine CD34 antibody (MEC 14.7 1:50 dilution; Abcam, Cambridge, Mass.) was applied in 1% rabbit serum in Tris-HCl, pH 7.4 at room temperature for 1 hour. Slides were washed in 50 mM TrisHCl, pH 7.4 and rabbit anti-rat antibody (1:750 dilution; Vector Laboratories, CA, USA) was applied for 30 minutes, followed by anti-rabbit horseradish peroxidase-conjugated antibody (ABC detection kit, Vector Laboratories, CA, USA). Following further washing, immunoperoxidase staining was developed using a ImmPACT™ DAB diluent kit (Vector Laboratories, CA, USA) per the manufacturer instructions and counterstained with methyl green. Microvessel density (MVD) was calculated as previously described [Weidner et al. 1991, N Engl J Med 324:1-8].

[10] = Homo sapiens, HUVEC, read-out: IC50 of HUVEC proliferation
[11] = equivalent concentration 0.1 nM

With NCCCC(O)(P(=O)(O)O)P(=O)(O)O [ALN, (4-amino-1-hydroxybutylidene)bisphosphonic acid] the “Dose dependence of inhibition of ECGS-induced HUVEC proliferation” value (HUVEC [1]) was “inhibited at a dose dependent manner”, the IC50 (HUVEC [1]; [10]) was 50 µM and the “IC30 of HUVEC proliferation” value (HUVEC [1]) was 10 µM. The “IC70 of HUVEC proliferation” value (HUVEC [1]) was 90 µM and the “Dose dependence of inhibition of Saos-2 proliferation” value [2] was “inhibited at a dose dependent manner”.

With CO[C@@H]1[C@H](OC(=O)NC(=O)CCl)CC[C@]2(CO2)[C@H]1[C@@]1(C)O[C@@H]1CC=C(C)C [TNP-470] the “Inhibition of HUVEC proliferation, free vs conjugated TNP-470” value (HUVEC [1]) was “inhibited similarly”, the IC50 (HUVEC [1]; [10]) was 0.0001 µM and the “IC30 of HUVEC proliferation” value (HUVEC [1]) was 2.5e-07 µM. The “IC70 of HUVEC proliferation” value (HUVEC [1]) was 1 µM and the “Inhibition of chemotactic migration response to VEGF” value (shortened to “Inhibition … to VEGF”) (HUVEC [3]; equivalent concentrations of 0.1, 1 and 10 nM) was “dramatically inhibited”.

In the case of “HPMA-Gly-Gly-Pro-Nle-ALN-TNP-470 [HPMA copolymer-ALN-TNP-470 conjugate]”, the “Cytotoxic effect on HUVEC at doses higher than” value (HUVEC [1]; ALN and TNP-470 equivalent concentrations) is reported as greater than 10 nM, the “Concentrations inhibiting HUVEC proliferation in the presence of cathepsin K inhibitor III” value (HUVEC [1]; ALN-equivalent concentrations, 72 hours) is reported as “higher than 4 μM” and the “Shift of concentration inhibiting HUVEC proliferation in presence vs absence of cathepsin K inhibitor III” value (HUVEC [1]; higher concentration in presence of inhibitor) is reported as 4 logs. It also gave an IC50 (HUVEC [1]; read-out: IC50 of ECGS-induced HUVEC proliferation, ALN and TNP-470 equivalent concentrations, 72 hours) of 0.001 µM, an IC50 (HUVEC [1]; read-out: IC50 of HUVEC proliferation in the presence of cathepsin K inhibitor III, 1 μM cathepsin K inhibitor III) of 4.2 µM and an IC50 [2] of 30 µM. For the same compound, the IC50 [4] was 10 µM, the “Conjugate bound to hydroxyapatite” value ([5]; 2 minutes of incubation) was 50% and the “Conjugate bound to hydroxyapatite” value ([5]; plateau after 175 minutes of incubation) was 92%. The “Inhibition … to VEGF” value (HUVEC [3]; [11]) was 18%, the “Inhibition … to VEGF” value (HUVEC [3]; equivalent concentration 1 nM) was 35% and the “Inhibition … to VEGF” value (HUVEC [3]; equivalent concentration 10 nM) was 61%. For the same compound, the “Inhibition of capillary-like tube length vs untreated control” value (“Inhibition … vs untreated control” for short) (HUVEC [6]; equivalent concentration 0.01 nM) was 29%, the “Inhibition … vs untreated control” value (HUVEC [6]; [11]) was 54% and the “Inhibition … vs untreated control” value (HUVEC [6]; equivalent concentration 1 nM) was 64%. The “Inhibition of VEGF-induced extravasation of Evans blue dye vs vehicle” value [7] was 92%, the Tumor growth inhibition [8] was 96% and the “Microvessel density (MVD)” value ([9]; CD34 staining) was 32±9 microvessels/mm^2. The “Reduction in microvessel density (MVD) vs control” value ([9]; CD34 staining) was 74% and the “Tumor histology (H & E)” value ([9]; mouse, in vivo) was “almost regressed”.
